According to US4738977A, “2-pyridylacetic acid derivatives, pharmaceutical composition containing the same and their use in treating ulcers” (Suntory Limited, priority 1985, dated 1988):

Assays:
[1] = tested on: gastric acid secretion; experiment: Action on Gastric Acid Secretion (Shay Rat, pylorus ligation); type: in vivo, Sprague-Dawley strain male rats; conditions: intraduodenal immediately after pylorus ligation, 4 h gastric juice
Protocol: (§1) For the pharmocological examination of the compounds of the present invention, the following tests were carried out to confirm the effect of inhibiting gastric acid secretion and the protective effect of gastric mucosa. For the toxicity, the test compound was orally administered to six mice of one group to determine the toxicity (LD50) thereof.
1. Action on Gastric Acid Secretion (Shay Rat)
Sprague-Dawley strain male rats weighing 200-240 g were used after being starved for 24 hours (water was given ad libitum). Under ether anesthesia, the abdomen was cut and, after ligation of the pylorus part, then closed, and the rat was starved of both food and water. Four hours later the stomach was removed under ether anesthesia and the gastric juice was collected. The gastric juice collected was centrifuged at 3000 rpm for 10 minutes, the volume of the supernatant was measured, and the acidity was determined by titrating 1 ml of the gastric juice with 0.1 N sodium hydroxide solution to pH 7.0. Further, from the amount of gastric juice and the acidity, the acid output (μEg/4h) was calculated; the percentage of inhibition was determined from the following formula, and the percentage of inhibition versus dose (mg/kg) was then plotted on a semi-logarithmic graph to determine the ED50 value. Each test drug was suspended in physiological saline with a few drops of Tween 80 (available from Nakarai Chemicals Ltd.,) and administered into the duodenum at a proportion of 0.2 ml/100 g-body weight immediately after pylorus ligation. [formula]

[2] = Action on Hydrochloric Acid Plus Ethanol Induced Ulcer; type: in vivo, Sprague-Dawley strain male rats; conditions: rat, oral 30 minutes before HCl-ethanol
Protocol: 2. Action on Hydrochloric Acid Plus Ethanol Induced Ulcer
Sprague-Dawley strain male rats weighing 200-240 g were used after starving for 24 hours. To each rat, a 60% ethanolic solution containing 150 mM of hydrochloric acid was administered orally at a volume of 0.5 ml/100 g-body weight, and the stomach was removed under ether anesthesia 1 hour later. Into the stomach, 10 ml of a 2% formalin solution was injected, and further the stomach was then immersed in a 2% formalin solution for 15 minutes to fix the inner and outer wall of the stomach. The stomach was cut open along the greater curvature, and the length of the damage generated at the glandular portion of the stomach was measured, and the sum of the lengths of the damages of gastric mucosa per one rat was defined as the lesion index (mm), which was compared with a control group to calculate the percentage of inhibition according to the formula shown below, and then the percentage of inhibition versus dose (mg/kg) was plotted on a semi-logarithmic graph to determine the ED50 value. Each test drug was suspended in physiological saline a few drops of Tween 80 and administered orally 30 minutes before administration of the hydrochloric acid ethanolic solution. [formula]

[3] = Toxicity (LD50) in mouse; conditions: in vivo, oral, six mice of one group
Protocol: as §1

[4] = Anti-Aspirin Ulcer Action; type: in vivo, Sprague-Dawley-strain male rats; conditions: rat, into the duodenum, aspirin 150 mg/kg oral, 5 hours
Protocol: 3. Anti-Aspirin Ulcer Action
Sprague-Dawley-strain male rats weighing about 220 g were starved for 24 hours, and with pylorus being ligated under ether anesthesia, the test drug was administered into the duodenum. After recovery from ether anesthesia, 150 mg/kg of aspirin (suspended in 1% CMC) was orally administered. Five hours later, the stomach was removed under ether anesthesia, 10 ml of 2% formalin solution was injected into the stomach, and the stomach was then immersed in a 2% formalin solution for about 15 minutes. The stomach was then cut open along the greater curvature and the length of the damage generated at the glandular portion of the stomach was measured under dissecting microscope (×10) and the sum of the lengths per one rat (mm) was defined as the lesion index. The ED50 value was calculated as described before.

[5] = Anti-Indomethacin Ulcer Action; type: in vivo, Sprague-Dawley-strain male rats; conditions: rat, 30 minutes before indomethacin 30 mg/kg s.c., 5 hours
Protocol: 4. Anti-Indomethacin Ulcer Action
Sprague-Dawley-strain male rats weighing about 200-220 g were starved for 24 hours, and 30 mg/kg of indomethacin (suspended in 1% CMC) was administered subcutaneously. After five hours, the stomach was removed under ether anesthesia, and subsequently the same treatment as in the case of an aspirin ulcer was carried out and the sum of the length (mm) of the damage produced at the glandular portion of the stomach per one rat was defined as lesion index. The test drug was administered 30 minutes before administration of indomethacin. The ED50 value was calculated as described before.

[6] = Anti Stress Ulcer; type: in vivo, Sprague-Dawley-strain male rats; conditions: rat, oral 30 minutes before water immersion stress at 23° C., 5 hours; read-out: Action on anti-stress ulcer (ED50)
Protocol: Sprague-Dawley-strain male rats weighing about 240-260 g were starved for 24 hours, and, 30 minutes after oral administration of the test drug, the rat was placed in a stress cage and stress was loaded by immersing the rat into a water tank maintained at 23° C. to the xiphisternum of the chest. Five hours later, the stomach was removed under ether anesthesia, the same treatment as in the case of aspirin ulcer was applied, and the sum of the lengths (mm) of the mucosa damage generated at the glandular portion of the stomach was defined as the lesion index. The ED50 value was calculated as described before.

[7] = Anti-Duodenal Ulcer Action; type: in vivo, Sprague-Dawley-strain male rats; conditions: rat, indomethacin plus histamine 2HCl
Protocol: 6. Anti-Duodenal Ulcer Action
Sprague-Dawley-strain male rats weighing 200-220 g were starved for 24 hours, and indomethacin (suspended in saline with Tween 80) and histamine 2HCl (dissolved in 10% gelatin solution) were administered following the time schedule shown below. Then, under ether anesthesis, stomach and the duodenal part were removed and 2% formalin solution was injected thereinto. Further, they were immersed in 2% formalin solution for about 15 minutes, and then cut open along the greater curvature to the duodenal part, and the number and area (length in the case of linear ulcer) of the mucosa damages generated at the Corpus, Antrum and Duodenum respectively were measured under stereoscopic microscope (×10), and the sum of the area (mm^2) per one rat was defined as lesion index. The ED50 value was calculated as described before. [drawing 32]

[8] = Toxicity (LD50) in rat; conditions: in vivo, oral

Row | Structure (SMILES) | ED50 [1] [mg/kg] | ED50 [2] [mg/kg] | further results
1 | C=CCNC(=S)C(C(=O)OCC=C(C)C)c1ccccn1 (stereo not drawn) [Example 10, Prenyl 2-allylthiocarbamoyl-2-(2-pyridyl)acetate] | 4.4 | 7.7 | –
2 | CNC(=S)C(C(=O)OCC=C(C)C)c1ccccn1 (stereo not drawn) [Example 9, Prenyl 2-methylthiocarbamoyl-2-(2-pyridyl)acetate] | 3.5 | 1.1 | –
3 | CCOC(=O)C(C(=S)NCCCO)c1ccccn1 (stereo not drawn) [Example 20, Ethyl 2-(3-hydroxypropyl)thiocarbamoyl-2(2-pyridyl)acetate] | – | 2.3 | –
4 | CCOC(=O)C(C(=S)NCc1ccccn1)c1ccccn1 (stereo not drawn) [Example 24, Ethyl 2-(2-pyridyl)methylthiocarbamoyl-2(2-pyridyl)acetate] | 6.4 | – | –
5 | CCOC(=O)C(C(=S)NC1CCCCC1)c1ccccn1 (stereo not drawn) [Example 4, Ethyl 2-cyclohexylthiocarbamoyl-2-(2-pyridyl)acetate] | 15.5 | – | –
6 | CNC(=S)C(C(=O)OC/C=C(\C)CC/C=C(\C)CCC=C(C)C)c1ccccn1 (stereo not drawn) [Example 15, Farnesyl 2-methylthiocarbamoyl-2-(2-pyridyl)acetate] | 5.6 | 0.3 | –
7 | CCNC(=S)C(C(=O)OCC)c1ccccn1 (stereo not drawn) [Example 2, Ethyl 2-ethylthiocarbamoyl-2-(2-pyridyl)acetate] | 4 | 6.8 | –
8 | C=CCNC(=S)C(C(=O)OCC)c1ccccn1 (stereo not drawn) [Example 3, Ethyl 2-allylthiocarbamoyl-2-(2-pyridyl)acetate] | 3.8 | – | –
9 | CCOC(=O)C(C(=S)Nc1ccccc1)c1ccccn1 (stereo not drawn) [Example 6, Ethyl 2-phenylthiocarbamoyl-2-(2-pyridyl)acetate] | 9.3 | 3.4 | LD50 [3]: > 1300 mg/kg
10 | CCCNC(=S)C(C(=O)OCC)c1ccccn1 (stereo not drawn) [Example 19, Ethyl 2-propylthiocarbamoyl-2-(2-pyridyl)acetate] | 3.8 | – | –
11 | CNC(=S)C(C(=O)OC/C=C(\C)CCC=C(C)C)c1ccccn1 (stereo not drawn) [Example 12, Geranyl 2-methylthiocarbamoyl-2-(2-pyridyl)acetate] | 5 | 1.4 | LD50 [3]: > 1300 mg/kg; ED50 [4]: 0.8 mg/kg; ED50 [5]: 0.7 mg/kg; ED50 [6]: 5.3 mg/kg; ED50 [7]: 0.6 mg/kg
12 | CC(C)=CCOC(=O)C(C(N)=S)c1ccccn1 (stereo not drawn) [Example 18, Prenyl 2-thiocarbamoyl-2-(2-pyridyl)acetate] | 7.8 | 4.5 | –
13 | CNC(=S)C(C(=O)OCc1ccccc1)c1ccccn1 (stereo not drawn) [Example 8, Benzyl 2-methylthiocarbamoyl-2-(2-pyridyl)acetate] | 12.3 | – | –
14 | CC(C)=CCC/C(C)=C/COC(=O)C(C(=S)Nc1ccccc1)c1ccccn1 (stereo not drawn) [Example 14, Geranyl 2-phenylthiocarbamoyl-2-(2-pyridyl)acetate] | 36 | 3.7 | –
15 | CCOC(=O)C(C(=S)NC)c1ccccn1 (stereo not drawn) [Example 1, ethyl 2-methylthiocarbamoyl-2-(2-pyridyl)acetate] | 2.4 | – | –
16 | CC(C)=CCC/C(C)=C/COC(=O)C(C(N)=S)c1ccccn1 (stereo not drawn) [Example 17, geranyl 2-thiocarbamoyl-2-(2-pyridyl)acetate] | 5.3 | 2.8 | LD50 [3]: > 2000 mg/kg; ED50 [4]: 1 mg/kg; ED50 [6]: 4.2 mg/kg; ED50 [7]: 1 mg/kg; LD50 [8]: > 2860 mg/kg
